Target: T1, LdtR (Candidatus Liberibacter asiaticus, UniProt A0ABN4AZS1)
T1 construct: gene WSI_01095
Assay type: binding
Conditions: promoters of CLIBASIA_02120 and CLIBASIA_03520; pH 7.2, 150 mM KCl, 10 mM MgCl2, 37 °C

SMILES | EMSA, disruption of LdtR binding to promoter DNA
CCc1oc2ccccc2c1C(=O)c1cc(Br)c(O)c(Br)c1 [benzbromarone] | benzbromarone and phloretin disrupted the binding of LdtR to both promoters (Fig. S2)
O=C(CCc1ccc(O)cc1)c1c(O)cc(O)cc1O [phloretin] | benzbromarone and phloretin disrupted the binding of LdtR to both promoters (Fig. S2)

From PMC5481520 (Microbial Biotechnology, 2017)
